Literature values, collected in patent EP1385541B1, “IMMUNOSTIMULANT COMPOSITIONS COMPRISING AN AMINOALKYL GLUCOSAMINIDE PHOSPHATE AND QS-21” (priority 2000, dated 2001).
Like-named read-outs stand apart in the source and are kept apart here.

Columns and labels:
sheep red blood cells = settings: substantially pure QS-21 saponin, as described in U.S. Patent No. 5,057,540

QS-21
hemolysis of sheep red blood cells at concentrations of (sheep red blood cells): ≥ 25 µg/mL
critical micellar concentration (in phosphate buffered saline): ~0.02 % (w/v)
critical micellar concentration (in water): about 0.03 % (w/v)
